Laboratory results: article PMC2880701 (Journal of the American Chemical Society, 2009)

Key:
HDAC2 = HDAC2 (Homo sapiens, UniProt Q92769); format: biochemical; conditions: read-out: HDAC inhibitory activity IC50, HDAC2
HDAC1 = HDAC1 (Homo sapiens, UniProt Q13547); test: homogeneous trypsin-coupled fluorigenic HDAC assay, HDAC1; conditions: isostere versus corresponding depsipeptide natural product (active thiol forms)
Chain of HDAC1 (Q13547 whole entry): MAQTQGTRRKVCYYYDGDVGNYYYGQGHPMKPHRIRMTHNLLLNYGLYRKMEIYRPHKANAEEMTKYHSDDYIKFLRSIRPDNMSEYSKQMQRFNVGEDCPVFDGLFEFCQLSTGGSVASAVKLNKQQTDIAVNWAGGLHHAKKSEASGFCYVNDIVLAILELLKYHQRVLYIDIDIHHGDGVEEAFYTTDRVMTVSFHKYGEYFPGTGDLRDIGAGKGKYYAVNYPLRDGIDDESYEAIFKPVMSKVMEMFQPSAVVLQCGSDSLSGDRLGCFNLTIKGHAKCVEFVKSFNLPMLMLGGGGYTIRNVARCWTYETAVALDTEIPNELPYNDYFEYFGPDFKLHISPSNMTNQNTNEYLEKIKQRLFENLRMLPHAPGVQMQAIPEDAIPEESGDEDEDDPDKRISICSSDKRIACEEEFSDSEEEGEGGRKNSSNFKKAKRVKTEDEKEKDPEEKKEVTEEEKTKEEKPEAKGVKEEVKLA

Chain of HDAC2 (Q92769 whole entry): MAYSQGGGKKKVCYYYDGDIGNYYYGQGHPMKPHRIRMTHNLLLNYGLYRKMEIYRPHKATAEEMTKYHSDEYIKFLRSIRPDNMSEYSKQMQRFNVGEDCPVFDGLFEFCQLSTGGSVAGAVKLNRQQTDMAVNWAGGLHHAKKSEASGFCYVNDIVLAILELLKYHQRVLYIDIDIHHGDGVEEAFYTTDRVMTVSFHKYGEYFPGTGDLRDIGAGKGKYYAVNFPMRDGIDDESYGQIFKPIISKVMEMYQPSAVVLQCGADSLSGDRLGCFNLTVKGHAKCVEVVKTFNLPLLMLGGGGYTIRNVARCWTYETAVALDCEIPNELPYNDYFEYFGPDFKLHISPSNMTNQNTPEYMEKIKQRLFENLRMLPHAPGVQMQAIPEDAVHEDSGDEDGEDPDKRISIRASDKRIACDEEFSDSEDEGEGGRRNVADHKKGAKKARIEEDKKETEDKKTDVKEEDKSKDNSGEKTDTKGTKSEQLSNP

Row | Compound | IC50 (HDAC2) | fold less potent against HDAC1 than the parent natural product (HDAC1)
1 | CCCCCCCC(=O)SCC/C=C/[C@@H]1CC(=O)NCc2nc(cs2)C2=N[C@@](C)(CS2)C(=O)N[C@@H](C(C)C)C(=O)N1 [Largazole Isostere (11)] | > 3 µM | 
2 | CC(C)[C@@H]1NC(=O)[C@]2(C)CSC(=N2)c2csc(n2)CNC(=O)C[C@@H](/C=C/CCS)NC1=O [Largazole Isostere Thiol (31)] |  | 9 fold
